Measurements published in patent US11865098B1, “Methods and compositions for treating excessive sleepiness” (Axsome Malta Ltd., priority 2017, dated 2024).

System: patients with narcolepsy type 1 or type 2
Assay: Safety and tolerability (TEAEs, discontinuations), 12-week phase 3 study in narcolepsy
Format: in vivo, human
Conditions: for Anxiety, incidence % / Anxiety, incidence n / Any TEAE, incidence % / Any TEAE, incidence n / Constipation, incidence % / Constipation, incidence n / Decreased appetite, incidence % / Decreased appetite, incidence n / Diarrhea, incidence % / Diarrhea, incidence n / Discontinuations due to TEAEs, incidence % / Discontinuations due to TEAEs, incidence n / Dizziness, incidence % / Dizziness, incidence n / Dry mouth, incidence % / Dry mouth, incidence n / Dyspepsia, incidence % / Dyspepsia, incidence n / Fatigue, incidence n / Headache, incidence % / Headache, incidence n / Heart rate increased, incidence n / Influenza, incidence % / Influenza, incidence n / Insomnia, incidence % / Insomnia, incidence n / Nasopharyngitis, incidence % / Nasopharyngitis, incidence n / Nausea, incidence % / Nausea, incidence n / Serious TEAEs, incidence n / Upper respiratory tract infection, incidence % / Upper respiratory tract infection, incidence n / Weight Increased, incidence % / Weight Increased, incidence n / Weight decreased, incidence % / Weight decreased, incidence n / Fatigue, incidence % / Serious TEAEs, incidence % / Heart rate increased, incidence %: safety population
Description: The study was a 12-week, double-blind, randomized, placebo-controlled, parallel-group study. Patients were randomized (1:1:1:1) to receive placebo or APC 75, 150, or 300 mg; randomization was stratified by the presence or absence of cataplexy.
Co-primary endpoints were change from baseline to week 12 in MWT mean sleep latency and ESS score. The key secondary endpoint was the percentage of patients who reported improvement on the Patient Global Impression of Change (PGI-C) (Guy, ECDEU assessment manual for psychopharmacology, revised. US Department of Health, Education, and Welfare publication (ADM 76-338). Rockville, MD: National Institute of Mental Health; 1976) at week 12. Other secondary and exploratory endpoints included changes on function and quality-of-life and changes in the number of cataplexy attacks per week. Safety evaluation included adverse events, laboratory tests, and vital signs.

With NC(=O)OC[C@H](N)Cc1ccccc1 [JZP-110, (R)-2-amino-3-phenylpropyl carbamate] the Discontinuation rate (75 mg) was 16.9%, the “Anxiety, incidence %” value (75 mg) was “(1.7) %” and the “Anxiety, incidence n” value (75 mg) was 1. The “Any TEAE, incidence %” value (75 mg) was “(57.6) %”, the “Any TEAE, incidence n” value (75 mg) was 34 and the “Constipation, incidence %” value (75 mg) was “(5.1) %”. The “Constipation, incidence n” value (75 mg) was 3, the “Decreased appetite, incidence %” value (75 mg) was “(8.5) %” and the “Decreased appetite, incidence n” value (75 mg) was 5. The “Diarrhea, incidence %” value (75 mg) was “(3.4) %”, the “Diarrhea, incidence n” value (75 mg) was 2 and the “Discontinuations due to TEAEs, incidence %” value (75 mg) was “(1.7) %”. The “Discontinuations due to TEAEs, incidence n” value (75 mg) was 1, the “Dizziness, incidence %” value (75 mg) was “(3.4) %” and the “Dizziness, incidence n” value (75 mg) was 2. The “Dry mouth, incidence %” value (75 mg) was “(5.1) %”, the “Dry mouth, incidence n” value (75 mg) was 3 and the “Dyspepsia, incidence %” value (75 mg) was “(1.7) %”. For the same compound, the “Dyspepsia, incidence n” value (75 mg) was 1, the “Fatigue, incidence n” value (75 mg) was 0 and the “Headache, incidence %” value (75 mg) was “(10.2) %”. The “Headache, incidence n” value (75 mg) was 6, the “Heart rate increased, incidence n” value (75 mg) was 0 and the “Influenza, incidence %” value (75 mg) was “(3.4) %”. For the same compound, the “Influenza, incidence n” value (75 mg) was 2, the “Insomnia, incidence %” value (75 mg) was “(3.4) %” and the “Insomnia, incidence n” value (75 mg) was 2. For the same compound, the “Nasopharyngitis, incidence %” value (75 mg) was “(8.5) %”, the “Nasopharyngitis, incidence n” value (75 mg) was 5 and the “Nausea, incidence %” value (75 mg) was “(5.1) %”. For the same compound, the “Nausea, incidence n” value (75 mg) was 3, the “Serious TEAEs, incidence n” value (75 mg) was 0 and the “Upper respiratory tract infection, incidence %” value (75 mg) was “(1.7) %”. For the same compound, the “Upper respiratory tract infection, incidence n” value (75 mg) was 1, the “Weight Increased, incidence %” value (75 mg) was “(3.4) %” and the “Weight Increased, incidence n” value (75 mg) was 2. The “Weight decreased, incidence %” value (75 mg) was “(1.7) %”, the “Weight decreased, incidence n” value (75 mg) was 1 and the Discontinuation rate (150 mg) was 13.6%. For the same compound, the “Serious TEAEs (events)” value (150 mg, one patient, deemed not related by the investigator) was 2 serious TEAEs of non-cardiac chest pain and anxiety, the “Anxiety, incidence %” value (150 mg) was “(5.1) %” and the “Anxiety, incidence n” value (150 mg) was 3. The “Any TEAE, incidence %” value (150 mg) was “(79.7) %”, the “Any TEAE, incidence n” value (150 mg) was 47 and the “Constipation, incidence %” value (150 mg) was “(1.7) %”. For the same compound, the “Constipation, incidence n” value (150 mg) was 1, the “Decreased appetite, incidence %” value (150 mg) was “(8.5) %” and the “Decreased appetite, incidence n” value (150 mg) was 5. The “Diarrhea, incidence %” value (150 mg) was “(5.1) %”, the “Diarrhea, incidence n” value (150 mg) was 3 and the “Discontinuations due to TEAEs, incidence %” value (150 mg) was “(5.1) %”. The “Discontinuations due to TEAEs, incidence n” value (150 mg) was 3, the “Dizziness, incidence %” value (150 mg) was “(1.7) %” and the “Dizziness, incidence n” value (150 mg) was 1. For the same compound, the “Dry mouth, incidence %” value (150 mg) was “(6.8) %”, the “Dry mouth, incidence n” value (150 mg) was 4 and the “Dyspepsia, incidence %” value (150 mg) was “(3.4) %”. For the same compound, the “Dyspepsia, incidence n” value (150 mg) was 2, the “Fatigue, incidence %” value (150 mg) was “(3.4) %” and the “Fatigue, incidence n” value (150 mg) was 2. For the same compound, the “Headache, incidence %” value (150 mg) was “(23.7) %”, the “Headache, incidence n” value (150 mg) was 14 and the “Heart rate increased, incidence n” value (150 mg) was 0. For the same compound, the “Influenza, incidence %” value (150 mg) was “(1.7) %”, the “Influenza, incidence n” value (150 mg) was 1 and the “Insomnia, incidence n” value (150 mg) was 0. For the same compound, the “Nasopharyngitis, incidence %” value (150 mg) was “(13.6) %”, the “Nasopharyngitis, incidence n” value (150 mg) was 8 and the “Nausea, incidence %” value (150 mg) was “(10.2) %”. The “Nausea, incidence n” value (150 mg) was 6, the “Serious TEAEs, incidence %” value (150 mg) was “(1.7) %” and the “Serious TEAEs, incidence n” value (150 mg) was 1. For the same compound, the “Upper respiratory tract infection, incidence %” value (150 mg) was “(6.8) %”, the “Upper respiratory tract infection, incidence n” value (150 mg) was 4 and the “Weight Increased, incidence n” value (150 mg) was 0. For the same compound, the “Weight decreased, incidence %” value (150 mg) was “(1.7) %”, the “Weight decreased, incidence n” value (150 mg) was 1 and the Discontinuation rate (300 mg) was 27.1%. The “Discontinuation due to adverse events” value (300 mg, n=5) was 8.5%, the “Anxiety, incidence %” value (300 mg) was “(8.5) %” and the “Anxiety, incidence n” value (300 mg) was 5. For the same compound, the “Any TEAE, incidence %” value (300 mg) was “(67.8) %”, the “Any TEAE, incidence n” value (300 mg) was 40 and the “Constipation, incidence n” value (300 mg) was 0. For the same compound, the “Decreased appetite, incidence %” value (300 mg) was “(15.3) %”, the “Decreased appetite, incidence n” value (300 mg) was 9 and the “Diarrhea, incidence %” value (300 mg) was “(5.1) %”. For the same compound, the “Diarrhea, incidence n” value (300 mg) was 3, the “Discontinuations due to TEAEs, incidence %” value (300 mg) was “(8.5) %” and the “Discontinuations due to TEAEs, incidence n” value (300 mg) was 5. For the same compound, the “Dizziness, incidence %” value (300 mg) was “(5.1) %”, the “Dizziness, incidence n” value (300 mg) was 3 and the “Dry mouth, incidence %” value (300 mg) was “(10.2) %”. For the same compound, the “Dry mouth, incidence n” value (300 mg) was 6, the “Dyspepsia, incidence %” value (300 mg) was “(5.1) %” and the “Dyspepsia, incidence n” value (300 mg) was 3. For the same compound, the “Fatigue, incidence %” value (300 mg) was “(5.1) %”, the “Fatigue, incidence n” value (300 mg) was 3 and the “Headache, incidence %” value (300 mg) was “(30.5) %”. For the same compound, the “Headache, incidence n” value (300 mg) was 18, the “Heart rate increased, incidence %” value (300 mg) was “(6.8) %” and the “Heart rate increased, incidence n” value (300 mg) was 4. For the same compound, the “Influenza, incidence %” value (300 mg) was “(1.7) %”, the “Influenza, incidence n” value (300 mg) was 1 and the “Insomnia, incidence %” value (300 mg) was “(5.1) %”. For the same compound, the “Insomnia, incidence n” value (300 mg) was 3, the “Nasopharyngitis, incidence %” value (300 mg) was “(5.1) %” and the “Nasopharyngitis, incidence n” value (300 mg) was 3. For the same compound, the “Nausea, incidence %” value (300 mg) was “(16.9) %”, the “Nausea, incidence n” value (300 mg) was 10 and the “Serious TEAEs, incidence n” value (300 mg) was 0. For the same compound, the “Upper respiratory tract infection, incidence n” value (300 mg) was 0, the “Weight Increased, incidence %” value (300 mg) was “(1.7) %” and the “Weight Increased, incidence n” value (300 mg) was 1. The “Weight decreased, incidence %” value (300 mg) was “(5.1) %”, the “Weight decreased, incidence n” value (300 mg) was 3 and the “Discontinuations due to TEAEs compared with placebo” value (150 and 300 mg groups) was “greater than placebo”. The “Anxiety, incidence %” value (All JZP-110) was “(5.1) %”, the “Anxiety, incidence n” value (All JZP-110) was 9 and the “Any TEAE, incidence %” value (All JZP-110) was “(68.4) %”. For the same compound, the “Any TEAE, incidence n” value (All JZP-110) was 121, the “Constipation, incidence %” value (All JZP-110) was “(2.3) %” and the “Constipation, incidence n” value (All JZP-110) was 4. The “Decreased appetite, incidence %” value (All JZP-110) was “(10.7) %”, the “Decreased appetite, incidence n” value (All JZP-110) was 19 and the “Diarrhea, incidence %” value (All JZP-110) was “(4.5) %”. For the same compound, the “Diarrhea, incidence n” value (All JZP-110) was 8, the “Discontinuations due to TEAEs, incidence %” value (All JZP-110) was “(5.1) %” and the “Discontinuations due to TEAEs, incidence n” value (All JZP-110) was 9. The “Dizziness, incidence %” value (All JZP-110) was “(3.4) %”, the “Dizziness, incidence n” value (All JZP-110) was 6 and the “Dry mouth, incidence %” value (All JZP-110) was “(7.3) %”. For the same compound, the “Dry mouth, incidence n” value (All JZP-110) was 13, the “Dyspepsia, incidence %” value (All JZP-110) was “(3.4) %” and the “Dyspepsia, incidence n” value (All JZP-110) was 6. The “Fatigue, incidence %” value (All JZP-110) was “(2.8) %”, the “Fatigue, incidence n” value (All JZP-110) was 5 and the “Headache, incidence %” value (All JZP-110) was “(21.5) %”. The “Headache, incidence n” value (All JZP-110) was 38, the “Heart rate increased, incidence %” value (All JZP-110) was “(2.3) %” and the “Heart rate increased, incidence n” value (All JZP-110) was 4. For the same compound, the “Influenza, incidence %” value (All JZP-110) was “(2.3) %”, the “Influenza, incidence n” value (All JZP-110) was 4 and the “Insomnia, incidence %” value (All JZP-110) was “(2.8) %”. The “Insomnia, incidence n” value (All JZP-110) was 5, the “Nasopharyngitis, incidence %” value (All JZP-110) was “(9.0) %” and the “Nasopharyngitis, incidence n” value (All JZP-110) was 16. For the same compound, the “Nausea, incidence %” value (All JZP-110) was “(10.7) %”, the “Nausea, incidence n” value (All JZP-110) was 19 and the “Serious TEAEs, incidence %” value (All JZP-110) was “(0.6) %”. For the same compound, the “Serious TEAEs, incidence n” value (All JZP-110) was 1, the “Upper respiratory tract infection, incidence %” value (All JZP-110) was “(2.8) %” and the “Upper respiratory tract infection, incidence n” value (All JZP-110) was 5. The “Weight Increased, incidence %” value (All JZP-110) was “(1.7) %”, the “Weight Increased, incidence n” value (All JZP-110) was 3 and the “Weight decreased, incidence %” value (All JZP-110) was “(2.8) %”. The “Weight decreased, incidence n” value (All JZP-110) was 5.
